Experimental data: patent US11331393B2, “Renal-homing peptide conjugates and methods of use thereof” (BLAZE BIOSCIENCE, INC., priority 2017, dated 2022)
Ends that are not written are not given here.

Tested on: kidneys
Conditions: unlabeled competitor 100 or 2000 nmol co-injected with 2 nmol SEQ ID NO: 4-AF647; 1 hour

Q: Which “competition with uptake of the peptide of SEQ ID NO: 4 in kidneys” value does the source give for KKEEEKKEEEKKEEEKK [SEQ ID NO: 571] here?
A: failed to compete
